What is called inhibition is the drop in the measured response relative to a control, in per cent. As a reminder, the EC50 is the concentration that produces a half-maximal response. Read a low EC50 as greater potency.

T1 sequence (P00533 25-1210): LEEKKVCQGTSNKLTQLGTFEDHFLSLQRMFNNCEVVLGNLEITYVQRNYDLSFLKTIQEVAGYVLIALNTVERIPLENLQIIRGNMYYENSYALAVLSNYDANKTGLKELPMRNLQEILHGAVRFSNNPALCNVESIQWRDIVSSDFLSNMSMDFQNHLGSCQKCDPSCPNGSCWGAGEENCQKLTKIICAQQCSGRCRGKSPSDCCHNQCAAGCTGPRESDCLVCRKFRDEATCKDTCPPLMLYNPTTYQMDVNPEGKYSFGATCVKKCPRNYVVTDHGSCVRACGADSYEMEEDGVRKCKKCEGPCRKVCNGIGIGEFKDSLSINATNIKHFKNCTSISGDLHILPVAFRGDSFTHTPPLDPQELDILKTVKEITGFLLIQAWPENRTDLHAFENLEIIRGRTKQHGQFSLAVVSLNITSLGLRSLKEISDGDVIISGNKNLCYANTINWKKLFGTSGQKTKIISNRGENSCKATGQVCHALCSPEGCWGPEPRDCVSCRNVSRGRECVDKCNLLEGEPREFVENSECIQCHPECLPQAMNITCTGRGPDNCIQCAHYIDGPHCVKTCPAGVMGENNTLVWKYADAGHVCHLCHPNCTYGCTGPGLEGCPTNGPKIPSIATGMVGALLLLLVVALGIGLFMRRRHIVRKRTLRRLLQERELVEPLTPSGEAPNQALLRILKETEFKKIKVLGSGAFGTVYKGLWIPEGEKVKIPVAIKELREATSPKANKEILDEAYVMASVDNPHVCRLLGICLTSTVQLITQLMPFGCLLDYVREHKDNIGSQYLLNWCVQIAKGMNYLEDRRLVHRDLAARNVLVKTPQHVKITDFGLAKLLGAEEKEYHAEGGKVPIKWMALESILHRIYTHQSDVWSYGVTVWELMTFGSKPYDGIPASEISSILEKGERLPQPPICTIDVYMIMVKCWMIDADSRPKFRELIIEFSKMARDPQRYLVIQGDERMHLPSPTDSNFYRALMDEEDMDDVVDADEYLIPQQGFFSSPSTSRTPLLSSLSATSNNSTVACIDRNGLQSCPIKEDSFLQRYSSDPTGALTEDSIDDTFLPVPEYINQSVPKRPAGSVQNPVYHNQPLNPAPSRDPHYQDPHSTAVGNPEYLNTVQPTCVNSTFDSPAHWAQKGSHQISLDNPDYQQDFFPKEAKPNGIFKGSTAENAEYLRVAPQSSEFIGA

For the first assay, the system named is A431 cells. The assay can be described thus: A431 cell growth inhibition assay (MTT assay). The note with it: Homo sapiens, A-431, concentration of 3 μM, 72 hours, read-out: Inhibition Percent (%). The format is cell-based. As for the experimental part:
A431 Cell Growth Inhibition Assay (MTT Assay)
A431, an epidermoid carcinoma cell line; The Cell Bank, Committee on Type Culture Collection Chinese Academy of Science, Shanghai.
Mix prepared medium DMEM and F12 in the proportion of 1:1, then add FBS to a final concentration of 10%.
Dissolved the dried compound sample with 100% DMSO to 2 mM. Then diluted the dissolved compound to 20 μM with cell complete growth medium.
Prior to the assay, cultured the A431 to logarithmic phase, and then removed medium from cell monolayers and wash the cells once with sterilized PBS. Aspriated the PBS and added 2 mL trypsin solution to cover the cell growth surface, removed 1 mL trypsin solution after soaking about 1 minute. Transferred the cell-culture plate to CO2 incubator; incubated at 37° C. for 8 minutes to allow cells to dissociate. After the cells detached, added 4 mL complete growth medium containing FBS with pipette to disperse them off and mixed gently to obtain a homogeneous cell suspension. Aspirated some of the cell suspension to a sterilized polypropylene tube, and determined the cell concentration by counting in a hematocytometer chamber under a microscope. Adjusted the cell concentration with growth medium to obtain 2.5×10^4 cells per milliliter.
Added 100 μL adjusted cell suspension to the 96-well cell-culture plate and occasionally mixed the cell suspension during the seeding process. After seeding cells, incubated the plate at 37° C. overnight with 5% CO2 in the CO2 incubator for cell attachment.
After the cell attachment, added 100 μL prepared compound solutions to the corresponding wells (add PBS to the ambient wells of the plate). The final compound concentrations ranged from 10 μM to 1.52 nM. Incubated the plate at 37° C. with 5% CO2 for 72 hours in the CO2 incubator.
After the exposure to the compound, removed the cell culture supernatant. Then added 100 μL 0.5 mg/mL MTT solution which dissolved in the growth medium without FBS. Incubated the plate at 37° C. with 5% CO2 for another 4 hours to allow the MTT reaction to proceed.
After the MTT reaction, discarded the MTT reaction solution. Added 100 μL DMSO to each well, and the plate was agitated on the plate shaker for several minutes to dissolve the formazan. Then, detected the absorbance at 490 nm using microplate reader.
In general terms: Tetrazolium dyes change colour on reduction, which living cells bring about.
In the case of `C#Cc1cccc(Nc2c(C#N)cnc3cc(OCCOC)c(NC(=O)C=C4CCN(CCC)CC4)cc23)c1` [Example 192, N-(3-cyano-4-(3-ethynylphenylamino)-7-(2-methoxyethoxy)quinolin-6-yl)-2-(1-propylpiperidin-4-ylidene)acetamide], the inhibition at 3 µM came to 93%.

`COCCOc1cc2ncc(C#N)c(Nc3ccc(F)c(Cl)c3)c2cc1NC(=O)C=C1CCN(C)CC1` [Example 180, N-(4-(3-chloro-4-fluorophenylamino)-3-cyano-7-(2-methoxyethoxy)quinolin-6-yl)-2-(1-methylpiperidin-4-ylidene)acetamide]: the inhibition at 3 µM came to 92%.

`COCCOc1cc2ncc(C#N)c(Nc3cccc(Br)c3)c2cc1NC(=O)C=C1CCN(C)CC1` [Example 194, N-(4-(3-bromophenylamino)-3-cyano-7-(2-methoxyethoxy)quinolin-6-yl)-2-(1-methylpiperidin-4-ylidene)acetamide]: the inhibition at 3 µM is 89%.

For `C#Cc1cccc(Nc2c(C#N)cnc3cc(OCCOC)c(NC(=O)C=C4CCN(CCOC)CC4)cc23)c1` [Example 193, N-(3-cyano-4-(3-ethynylphenylamino)-7-(2-methoxyethoxy)quinolin-6-yl)-2-(1-(2-methoxyethyl)piperidin-4-ylidene)acetamide], the inhibition at 3 µM came to 90%.

As to `CCCN1CCC(=CC(=O)Nc2cc3c(Nc4ccc(F)c(Cl)c4)c(C#N)cnc3cc2OCCOC)CC1` [Example 182, N-(4-(3-chloro-4-fluorophenylamino)-3-cyano-7-(2-methoxyethoxy)quinolin-6-yl)-2-(1-propylpiperidin-4-ylidene)acetamide], the inhibition at 3 µM was 90%.

`C#Cc1cccc(Nc2c(C#N)cnc3cc(OCCOC)c(NC(=O)C=C4CCN(CC)CC4)cc23)c1` [Example 191, N-(3-cyano-4-(3-ethynylphenylamino)-7-(2-methoxyethoxy)quinolin-6-yl)-2-(1-ethylpiperidin-4-ylidene)acetamide]: the inhibition at 3 µM was 93%.

With `C#Cc1cccc(Nc2c(C#N)cnc3cc(OCCOC)c(NC(=O)C=C4CCN(C)CC4)cc23)c1` [Example 190, N-(3-cyano-4-(3-ethynylphenylamino)-7-(2-methoxyethoxy)quinolin-6-yl)-2-(1-methylpiperidin-4-ylidene)acetamide], the inhibition at 3 µM was found to be 91%.

For the molecule `COCCOc1cc2ncc(C#N)c(Nc3ccc(F)c(Cl)c3)c2cc1NC(=O)C=C1CCN(CCOC)CC1` [Example 183, N-(4-(3-chloro-4-fluorophenylamino)-3-cyano-7-(2-methoxyethoxy)quinolin-6-yl)-2-(1-(2-methoxyethyl)piperidin-4-ylidene)acetamide], the inhibition at 3 µM stood at 90%.

Take `CCCN1CCC(=CC(=O)Nc2cc3c(Nc4ccc(F)c(Cl)c4)c(C#N)cnc3cc2OCC)CC1` [Example 179, N-(4-(3-chloro-4-fluorophenylamino)-3-cyano-7-ethoxyquinolin-6-yl)-2-(1-proplpiperidin-4-ylidene)acetamide]: the inhibition at 3 µM was 90%.

For the molecule `CCN1CCC(=CC(=O)Nc2cc3c(Nc4ccc(F)c(Cl)c4)c(C#N)cnc3cc2OCCOC)CC1` [Example 181, N-(4-(3-chloro-4-fluorophenylamino)-3-cyano-7-(2-methoxyethoxy)quinolin-6-yl)-2-(1-ethylpiperidin-4-ylidene)acetamide], the inhibition at 3 µM was determined as 94%.

Turning to `CCOc1cc2ncc(C#N)c(Nc3ccc(F)c(Cl)c3)c2cc1NC(=O)C=C1CCN(CC)CC1` [Example 178, N-(4-(3-chloro-4-fluorophenylamino)-3-cyano-7-ethoxyquinolin-6-yl)-2-(1-ethylpiperidin-4-ylidene)acetamide], the inhibition at 3 µM came out at 88%.

A further assay addresses T1, A431 cells EGFR-TK phosphorylation stimulated by EGF (Homo sapiens, UniProt P00533).
T1 construct: against A431 cells EGFR-TK; endogenous in cells; host or cells: A431 cells
The assay can be described thus: Inhibition of cellular EGFR-TK phosphorylation stimulated by EGF in A431 cells. It counts as cell-based. The conditions noted are these: A431 cells EGFR-TK phosphorylation stimulated by EGF (Table 4). As for the experimental part:
Inhibition Experiment of Cellular Epidermal Growth Factor Receptor Tyrosine Kinase
1) A431 cells were cultured in a medium which was prepared by adding 10% FCS into another medium comprising 50% DMEM and 50% F12.
2) A431 cells grown in six-well plates were cultured in a serum-free medium for 24 hours. During the 24 hour period the medium was replenished once after 12 hours.
3) A solution containing a compound to be assessed was added the A431 cells and the cells were cultured for 2 hours, supplemented twice by a medium free of the compound, and then EGF (100 ng/well) was added, and cultured for 5 minutes.
4) A431 cell homogenate was prepared by Laemili buffer which comprised 2% sodium dodecyl sulfonate (SDS), 5% 2-mercaptoethanol, 10% glycerol and 5 mM Tris (pH 6.8).
5) The A431 cell homogenate was heated for 5 minutes at 100° C.
6) Proteins in the A431 cell homogenates were separated by PAGE and transferred onto a nitrocellulose membrane, and an infrared reading was obtained.
Take `COCCOc1cc2ncnc(Nc3cccc(Br)c3)c2cc1NC(=O)C=C1CCN(C)CC1` [Example 65, N-(4-(3-bromophenylamino)-7-(2-methoxyethoxy)quinazolin-6-yl)-2-(1-methylpiperidin-4-ylidene)acetamide]: it took 0.23 µM to reach a half-maximal effect (EC50). That is a sub-micromolar value.

Turning to `COCCOc1cc2ncc(C#N)c(Nc3ccc(OCc4cccc(F)c4)c(Cl)c3)c2cc1N` [Example 141, 4-(4-(3-fluorobenzyloxy)-3-chlorophenylamino)-6-amino-7-(2-methoxyethoxy)quinoline-3-carbonitrile], a half-maximal effect (EC50) was put at 0.28 µM.

In turn, `COc1cc2ncnc(Nc3ccc(Oc4ccccc4)c(OC)c3)c2cc1NC(=O)C=C1CCNCC1` [Example 110, N-(7-methoxy-4-(3-methoxy-4-phenoxyphenylamino)quinazolin-6-yl)-2-(piperidin-4-ylidene)acetamide] had an EC50 of 0.9 µM.

Staying with this assay, now noted: A-431; concentration of 3 μM; A431 cells, EGF stimulated; one-time measurement at a single concentration (preliminary selection); NA = No activity; read-out: Inhibition Percent (%).
In the case of `C#Cc1cccc(Nc2ncnc3ccc(NC(=O)C=C4CCN(CC)CC4)cc23)c1` [Example 5, 2-(1-Ethylpiperidin-4-ylidene)-N-(4-(3-ethynylphenylamino)quinazolin-6-yl)acetamide], the inhibition at 3 µM came to 73%.

For `C#Cc1cccc(Nc2ncnc3ccc(NC(=O)C=C4CCN(Cc5ccccc5)CC4)cc23)c1` [Example 6, 2-(1-benzylpiperidin-4-ylidene)-N-(4-(3-ethynylphenylamino)quinazolin-6-yl)acetamide], the inhibition at 3 µM worked out at 24%.

Take `CCOc1cc2ncnc(Nc3ccc(OCc4ccccn4)c(Cl)c3)c2cc1NC(=O)C=C1CCNCC1` [Example 107, N-(4-(3-chloro-4-(pyridin-2-ylmethoxy)phenylamino)-7-ethoxyquinazolin-6-yl)-2-(piperidin-4-ylidene)acetamide]: the inhibition at 3 µM turned out to be 52%.

Take `N#Cc1cnc2ccc(N)cc2c1Nc1ccc(F)c(Cl)c1` [Example 132, 6-amino-4-(3-chloro-4-fluorophenylamino)quinoline-3-carbonitrile]: the inhibition at 3 µM is 64%.

As to `O=C(C=C1CCNCC1)Nc1ccc2ncnc(Nc3ccccc3)c2c1` [Example 31, N-(4-(phenylamino)quinazolin-6-yl)-2-(piperidin-4-ylidene)acetamide], the inhibition at 3 µM is 33%.

As for `COCCOc1cc2ncc(C#N)c(Nc3ccc(OCc4cccc(F)c4)c(Cl)c3)c2cc1N` [Example 141, 4-(4-(3-fluorobenzyloxy)-3-chlorophenylamino)-6-amino-7-(2-methoxyethoxy)quinoline-3-carbonitrile], the inhibition at 3 µM was found to be 91%.

Take `COCCOc1cc2ncnc(Nc3cccc(Br)c3)c2cc1NC(=O)C=C1CCNCC1` [Example 40, N-(4-(3-bromophenylamino)-7-(2-methoxyethoxy)quinazolin-6-yl)-2-(piperidin-4-ylidene)acetamide]: the inhibition at 3 µM turned out to be 89%.

For the molecule `O=C(C=C1CCNCC1)Nc1cc2c(Nc3cccc(Br)c3)ncnc2cc1OCCCN1CCOCC1` [Example 37, N-(4-(3-bromophenylamino)-7-(3-morpholinopropoxy)quinazolin-6-yl)-2-(piperidin-4-ylidene)acetamide], the inhibition at 3 µM is 82%.

In the case of `COc1cc2ncc(C#N)c(Nc3ccc(OCc4cccc(F)c4)c(Cl)c3)c2cc1NC(=O)C=C1CCNCC1` [Example 144, N-(4-(4-(3-fluorobenzyloxy)-3-chlorophenylamino)-3-cyano-7-methoxyquinolin-6-yl)-2-(piperidin-4-ylidene)acetamide], the inhibition at 3 µM turned out to be 89%.

Consider `O=C(C=C1CCNCC1)Nc1cc2c(Nc3cccc(Cl)c3)ncnc2cc1F` [Example 30, N-(4-(3-chlorophenylamino)-7-fluoroquinazolin-6-yl)-2-(piperidin-4-ylidene)acetamide], for which the inhibition at 3 µM was 55%.

On to `C[C@@H](Nc1ncnc2ccc(NC(=O)C=C3CCNCC3)cc12)c1ccccc1` [Example 35, N-(4-((R)-1-phenylethylamino)quinazolin-6-yl)-2-(piperidin-4-ylidene)acetamide], for which the inhibition at 3 µM came to 23%.

Regarding `COc1cc2ncnc(Nc3ccc(Oc4ccccc4)c(OC)c3)c2cc1NC(=O)C=C1CCNCC1` [Example 110, N-(7-methoxy-4-(3-methoxy-4-phenoxyphenylamino)quinazolin-6-yl)-2-(piperidin-4-ylidene)acetamide], the inhibition at 3 µM was 59%.

(Values after patent US8765946B2, “Methods of preparing and using quinazoline and quinoline derivatives” (priority 2006, dated 2014).)
